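Interpolation was linear, between the two tested concentrations surrounding the appropriate level; five concentrations were tested over 48 hours in 96-well plates. The concentration for 50% growth inhibition is given as GI50. TGI marks complete inhibition of growth.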 *1 amine or outer side, *2 acyl side, *3 side chain or, on linkers, in order; H or OH if unused. Where a SMILES comes first, the peptide text is derived from it. Bridges are numbered along the chain shown (N, C = ends). Roman numbers before positions name the chains, in order. [ ]: non-standard residue; d: D form. Actinocin(9to1) = Cc1c2oc3c(C)ccc(C(=O)[*:1])c3nc-2c(C(=O)[*:2])c(N)c1=O; NMeV = CN[CH](C(=O)O)C(C)C; Sar = CNCC(=O)O
Tests used:
Experiment in all cases: NCI anticancer screen, dose series, 48 h
HT29 colon = system: HT29 colon
MALME-3M melanoma = system: MALME-3M melanoma
CCRF-CEM leukemia = system: CCRF-CEM leukemia
NCI-H23 lung = system: NCI-H23 lung
UACC-62 melanoma = system: UACC-62 melanoma
SK-MEL-5 melanoma = system: SK-MEL-5 melanoma
T-47D breast = system: T-47D breast
UACC-257 melanoma = system: UACC-257 melanoma

SMILES	TGI (HT29 colon) [µM]	TGI (MALME-3M melanoma) [µM]	TGI (CCRF-CEM leukemia) [µM]	TGI (NCI-H23 lung) [µM]	TGI (UACC-62 melanoma) [µM]	TGI (SK-MEL-5 melanoma) [µM]	TGI (T-47D breast) [µM]	TGI (UACC-257 melanoma) [µM]	GI50 (HT29 colon) [µM]	GI50 (UACC-62 melanoma) [µM]	GI50 (SK-MEL-5 melanoma) [µM]	GI50 (T-47D breast) [µM]	GI50 (UACC-257 melanoma) [µM]
Cc1cc(-c2nc3ccccc3s2)ccc1NC(=O)[C@H](C)N	28.7	51.1	24.1	33.9	29.1	26.1	21.4	33.2	–	–	–	–	–
O=c1[nH]c(=O)n(Cc2ccccc2CO)cc1Sc1ccccc1	> 100	41.5	> 100	39.9	> 100	26.7	> 100	72.4	–	–	–	–	–
CCCCCCCCCCCCCCCCCCNc1ccn(C2OC(COP(=O)(O)OCC3OC(n4cc(C)c(=O)[nH]c4=O)CC3N=[N+]=[N-])C(O)C2O)c(=O)n1 (stereo not drawn)	35.1	32.1	48.7	36	36.4	57.2	> 100	76.3	–	–	–	–	–
O=c1cc(N2CCCC2)[nH]c(=O)n1-c1cccc(C(F)(F)F)c1	> 100	> 100	> 100	> 100	> 100	–	> 100	> 100	–	–	–	–	–
CCCCc1ccc(Nc2ncc3[nH]cnc3n2)cc1	44.8	40.6	> 100	35.4	49.6	31.1	61	59	–	–	–	–	–
CN(C)CCNC(=O)c1cccc2nc3c(nc12)-c1ccccc1C3=O	22.8	24.2	17.4	35.4	60.4	25.1	37.4	34.6	–	–	–	–	–
O=C(c1ccccc1)c1ccc2nc(-c3c(Cl)c(Cl)c(Cl)c(Cl)c3C(=O)N/N=C/c3ccccc3)[nH]c2c1	> 100	83	> 100	80.9	–	33.4	74.3	85	–	–	–	–	–
C#CC(F)(F)[C@]1(O)CC[C@H]2[C@@H]3CCC4=CC(=O)CCC4=C3[C@@H](c3ccc(C(C)=O)cc3)C[C@@]21C	> 50.5	–	–	–	33.8	21.6	36.1	88.5	0.109	12.5	8.47	< 0.0135	21.1
CCc1ccc2[nH]c(O)c(-c3[nH]c4ccccc4c3N=O)c2c1	25.5	21.6	> 100	19	23	13.6	32.8	28.5	–	–	–	–	–
Cc1sc(/N=C/c2c[nH]c3ccccc23)c(C#N)c1C	> 100	> 100	58.3	> 100	78.8	53.2	> 100	> 100	–	–	–	–	–
CCOC(=O)CNC(=O)C(C)NC(=O)C(NC(=O)CC(c1ncc[nH]1)c1ncc[nH]1)C(C)CC (stereo not drawn)	–	> 100	> 100	> 100	> 100	–	> 100	> 100	–	–	–	–	–
Cc1nc2ccc(S(=O)(=O)O)cc2c(=O)n1-c1ccc(C(=O)NN2C(=O)C(Cl)C2c2ccccc2O)cc1 (stereo not drawn)	> 100	> 100	> 100	> 100	–	> 100	> 100	> 100	–	–	–	–	–
COC(OC)C1OC(CO)C(n2ccc(N)nc2=O)C1O (stereo not drawn)	> 100	> 100	> 100	> 100	> 100	> 100	> 100	> 100	–	–	–	–	–
O=C1C(Br)=CC2(C=C1Br)CCNC1=C2C(=O)c2cccnc2C1=O	56.7	21.5	25.5	18.2	12.9	12.8	–	21.3	–	–	–	–	–
O=C1/C(=C/c2ccccc2[N+](=O)[O-])N=C(c2ccccc2)N1C1Nc2cc3c(cc2S1)NC(N1C(=O)/C(=C/c2ccccc2[N+](=O)[O-])N=C1c1ccccc1)S3 (stereo not drawn)	> 100	–	–	> 100	–	> 100	> 100	> 100	–	–	–	–	–
Cc1cn(CC2=NCC(C)(C)N2)c(=O)[nH]c1=O	> 100	> 100	> 100	> 100	> 100	> 100	> 100	> 100	–	–	–	–	–
Cc1c2oc3c(C)ccc(C(=O)NC4C(=O)NC(C(C)O)C(=O)N5CCCC5C(=O)N(C)CC(=O)N(C)C(C(C)C)C(=O)OC4C)c3nc-2c(C(=O)NC2C(=O)NC(C(C)O)C(=O)N3CCCC3C(=O)N(C)CC(=O)N(C)C(C(C)C)C(=O)OC2C)c(N)c1=O (stereo not drawn) (I: TTP[Sar][NMeV] / II: TTP[Sar][NMeV]; ester I:1-I:C, II:1-II:C; linker I:N-II:N via Actinocin(9to1); configuration not given here)	4.19	–	5	4.8	0.528	1.74	> 100	3.2	–	–	–	–	–
CC[C@H](C)[C@H]1NC(=O)[C@@H](NC(=O)[C@@H](CC(C)C)N(C)CC2CCCN2C(=O)C(C)=O)[C@@H](C)OC(=O)[C@H](Cc2ccc(OC)cc2)N(C)C(=O)C2CCCN2C(=O)[C@H](CC(C)C)NC(=O)[C@@H](C)C(=O)[C@H](C(C)C)OC(=O)C[C@@H]1O (stereo partly drawn)	0.0065	0.0474	0.00404	0.0591	0.0182	0.00843	0.012	0.0128	–	–	–	–	–
COC(=O)/C=C/c1cc(O)c2c(c1)[C@H](C(=O)OC)[C@@H](c1ccc(O)c(O)c1)O2	> 37.9	–	5.18	> 100	> 59.5	2.18	–	> 100	–	–	–	–	–
C=C(C)C(=O)[C@@]12C(=O)[C@@H](C)CC[C@H]1[C@H](C)C[C@@H]2C=C(C)C	34.8	40.6	> 100	36.3	> 100	45.1	–	33.5	–	–	–	–	–
Fc1ccc(N=NN2CCCC2)cc1	> 100	> 100	> 100	> 100	> 100	> 100	> 100	> 100	–	–	–	–	–
CC(C)(C)C1(COC(=O)c2ccc(N)cc2)COC1	> 100	> 100	> 100	> 100	> 100	> 100	> 100	> 100	–	–	–	–	–
CNC(=O)c1cc(NC(=O)N(CCC#N)CCN(C(=O)N[C@@H](Cc2ccccc2)C(=O)N[C@@H](CC(C)C)C(=O)NC)c2ccccc2)ccc1OC	> 100	38.5	> 100	> 100	> 55.4	> 69.2	> 85.9	51	–	–	–	–	–

Reference: PubChem BioAssay (NCI)
